Assay results reported in patent US7582786B2, “Synthetic catalytic free radical scavengers useful as antioxidants for prevention and therapy of disease” (Eukarion Inc., priority 1996, dated 2009).

Assays:
brain microsomes = assay: Lipid peroxidation induced in brain microsomes by iron and ascorbate (MDA)
Source text: A series of salen-metal complexes were synthesized and their catalytic activities determined. […] FIGS. 24A-24H show structural formulae of further salen-metal compounds which were synthesized and evaluated.

[1] = SOD activity, inhibition of cytochrome C reduction by xanthine plus xanthine oxidase (Example 1); assay type: biochemical; settings: Example 1, cytochrome C reduction
Protocol: The SOD activity of the compounds was determined by evaluating the inhibition of the reduction of cytochrome C produced by the oxygen free radical generating system, xanthine plus xanthine oxidase. Cytochrome C reduction is monitored spectrophotometrically at 550 nm according to the method described in Darr et al. (1987) Arch. Biochem. Biophys. 258: 351, incorporated herein by reference. The concentration of xanthine oxidase is adjusted such that it produces a rate of reduction of cytochrome C at 550 nm of 0.025 absorbance unit per minute. Under these conditions, the amount of SOD activity required to inhibit the rate of cytochrome C reduction by 50 percent (i.e., to a rate of 0.0125 absorbance unit per minute) is defined as one unit of activity. Salen-metal complexes are identified as antioxidants if they have at least 0.1 unit of activity at a concentration of 1 mM under these standard assay conditions.

[2] = Catalase activity, decomposition of hydrogen peroxide monitored at 240 nm (Example 1); assay type: biochemical; settings: Example 1, H2O2 decomposition at 240 nm
Protocol: Catalase activity was measured using a spectrophotometric method in which the decomposition of hydrogen peroxide is monitored at 240 nm according to the method of Aebi et al. (1984) Methods Enzymol. 105: 121, incorporated herein by reference. One unit of catalase activity is defined as the amount of enzyme (or salen-metal complex) required to decompose 1 μmole of hydrogen peroxide in one minute.

Molecule | inhibition of lipid peroxidation in brain microsomes (brain microsomes) | SOD Activity [1] [units/mM] | Catalase Activity [2] [units/mM]
Vitamin E | inhibition of lipid peroxidation |  | 
CC(C)(C)c1cc(Cl)cc2c1[O][Mn]([Cl])[O]c1c(cc(Cl)cc1C(C)(C)C)C=NC1CCCCC1N=C2 (centres unmarked) [Compound C11] |  | 101 | 46
COc1cc2c(c(C(C)(C)C)c1)[O][Mn]([Cl])[O]c1c(cc(OC)cc1C(C)(C)C)C=NC1CCCCC1N=C2 (centres unmarked) [Compound C12] |  | 4397 | 144
